The results in this text go back to ChEMBL document CHEMBL1201862, “PubChem BioAssay data set” (2004).

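Assay format: 96-well plates, 48-hour exposure. GI50 = concentration required for 50% inhibition of growth.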 Activity calls are given as the source filed them. Rule as the data show it: active = GI50 up to about 1.1 µM and inactive = higher. Bounds are passed on as bounds.

Some test systems named below: CAKI-1; DU-145; HCT-15; HL-60; HT-29; MCF7; MDA-MB-435; MDA-N; NCI-H226; NCI-H460; OVCAR-3; OVCAR-8; RPMI-8226; SF-268; SK-MEL-28; SK-MEL-5; SK-OV-3; SNB-75; UACC-257; UACC-62.
What all share (experiment): growth of human tumour cells (NCI), 48 h

On to `O=c1nc(N2CCNCC2)oc2cc(Cl)oc(=O)c12`, for which the GI50 with CAKI-1 is 2.59 µM (inactive); in the assay on DU-145 it was 5.5 µM (inactive); in the assay on HCT-15, 3.25 µM; in the assay with HL-60 it was 1.9 µM (inactive); in the assay with HT-29 it was 3.91 µM (inactive); with MCF7, 3.98 µM (inactive). Also, the GI50 in the assay on MDA-MB-435 is 4.44 µM (inactive); in the assay on MDA-N, 2.2 µM (inactive); in the assay with NCI-H226 it was 15.4 µM (inactive); with NCI-H460, 6.98 µM (inactive); with OVCAR-3 it was 4.06 µM (inactive); in the assay with OVCAR-8, 2 µM (inactive). The GI50 was 1.67 µM (inactive) in the assay on RPMI-8226; 3.89 µM (inactive) in the assay on SF-268; 3.13 µM (inactive) in the assay with SK-MEL-28; 3.14 µM (inactive) with SK-MEL-5; 12.3 µM (inactive) in the assay on SK-OV-3; 3.7 µM (inactive) in the assay on SNB-75. Moreover, the GI50 in the assay on UACC-257 is 7.57 µM (inactive); in the assay with UACC-62, 7.67 µM (inactive).

For the compound `COc1ccc(/C=C2\CCC(C)C3=C(c4ccc(OC)c(OC)c4)C(C#N)=C(N)OC32)cc1OC` (stereo not given), the GI50 in the assay on CAKI-1 was 4.36 µM (inactive); with DU-145, 5.5 µM (inactive); in the assay with HCT-15, 3.33 µM; in the assay with HL-60, 2.63 µM (inactive); in the assay on HT-29, 2.75 µM (inactive); with MCF7 it was 3.26 µM (inactive). The GI50 with MDA-MB-435 was 2.7 µM (inactive); with MDA-N, 3.45 µM (inactive); with NCI-H226, 2.39 µM (inactive); in the assay on NCI-H460, 3.03 µM (inactive); in the assay with OVCAR-3 it was 3.58 µM (inactive); in the assay with OVCAR-8, 4.01 µM (inactive). Besides, the GI50 was 2.04 µM (inactive) in the assay with RPMI-8226; 9.77 µM (inactive) in the assay on SF-268; 3.86 µM (inactive) in the assay with SK-MEL-28; 2.01 µM (inactive) in the assay on SK-MEL-5; 3.42 µM (inactive) in the assay on SK-OV-3; 2.33 µM (inactive) in the assay on SNB-75. Moreover, the GI50 in the assay with UACC-257 is 4.18 µM (inactive); in the assay with UACC-62, 2.86 µM (inactive).

Regarding `CC(=O)Nc1ccc2c3c(cc(O)c2c1)N(C(=O)CCCCC(=O)N1CC(CCl)c2c1cc(O)c1cc(NC(C)=O)ccc21)CC3CCl` (stereo not given), the GI50 is 0.745 µM (active) with CAKI-1; < 0.01 µM (active) in the assay on DU-145; 12.9 µM in the assay with HCT-15; < 0.01 µM (active) in the assay with HL-60; 0.301 µM (active) in the assay with HT-29; < 0.01 µM (active) with MCF7. The GI50 is 0.186 µM (active) in the assay with MDA-MB-435; 0.174 µM (active) with MDA-N; 0.0333 µM (active) in the assay on NCI-H226; < 0.01 µM (active) with NCI-H460; 0.209 µM (active) with OVCAR-3; 0.253 µM (active) with OVCAR-8. In addition, the GI50 is 0.169 µM (active) with RPMI-8226; < 0.0141 µM (active) in the assay on SF-268; 0.27 µM (active) with SK-MEL-28; 0.129 µM (active) in the assay with SK-MEL-5; 0.34 µM (active) in the assay with SK-OV-3; < 0.0395 µM (active) with SNB-75. Further, the GI50 was 0.181 µM (active) in the assay with UACC-257 and 0.0154 µM (active) in the assay on UACC-62.

For `Cc1cc2cc3c(cc2c(-c2ccc([N+](=O)[O-])cc2)n1)OCO3`, the GI50 was 38.4 µM (inactive) in the assay on CAKI-1; 62.8 µM (inactive) in the assay with DU-145; 26.5 µM in the assay with HCT-15; 57.5 µM (inactive) in the assay on HL-60; 56.8 µM (inactive) in the assay on HT-29; 37.8 µM (inactive) in the assay with MCF7. The GI50 with MDA-MB-435 is 65.9 µM (inactive); in the assay on MDA-N it was 54.2 µM (inactive); in the assay on NCI-H226, 24.8 µM (inactive); in the assay on NCI-H460, 29.7 µM (inactive); in the assay on OVCAR-3 it was 55.2 µM (inactive); in the assay with OVCAR-8 it was 28.5 µM (inactive). For the same compound, the GI50 was 35.8 µM (inactive) with RPMI-8226; 34.6 µM (inactive) in the assay on SF-268; 41.1 µM (inactive) in the assay on SK-MEL-28; 17.4 µM (inactive) in the assay with SK-MEL-5; 25.6 µM (inactive) in the assay on SK-OV-3; 19.7 µM (inactive) in the assay on SNB-75. Also, the GI50 is 80.2 µM (inactive) in the assay on UACC-257 and 20.6 µM (inactive) with UACC-62.

Regarding `Cc1cc(C)c(C[C@H]2COC(=O)[C@]2(O)Cc2c(C)cc(C)cc2C)c(C)c1`, the GI50 was 18.6 µM (inactive) in the assay with CAKI-1; 15.2 µM (inactive) in the assay on DU-145; 17.3 µM in the assay with HCT-15; 14.7 µM (inactive) with HL-60; 27.9 µM (inactive) in the assay with HT-29; 18.1 µM (inactive) with MCF7. Further, the GI50 is 18.3 µM (inactive) in the assay with MDA-MB-435; 19.8 µM (inactive) in the assay on MDA-N; 17 µM (inactive) with NCI-H226; 16.8 µM (inactive) in the assay with NCI-H460; 15 µM (inactive) in the assay on OVCAR-3; 23.6 µM (inactive) in the assay with OVCAR-8. For the same compound, the GI50 with RPMI-8226 was 25.2 µM (inactive); in the assay with SF-268 it was 14.9 µM (inactive); with SK-MEL-28, 24.7 µM (inactive); with SK-MEL-5, 17 µM (inactive); in the assay with SK-OV-3, 17.9 µM (inactive); with SNB-75, 19.4 µM (inactive). Besides, the GI50 in the assay on UACC-257 was 17.7 µM (inactive); in the assay on UACC-62, 13.7 µM (inactive).

As to `CN(C)CC/C=C1\c2ccccc2Sc2ccc(Cl)cc21`, the GI50 was 8.11 µM (inactive) in the assay with CAKI-1; 15.4 µM (inactive) in the assay with DU-145; 15.4 µM in the assay with HCT-15; 11.2 µM (inactive) in the assay on HL-60; 4.19 µM (inactive) in the assay on HT-29; 15.1 µM (inactive) in the assay on MCF7. Further, the GI50 was 10.3 µM (inactive) in the assay with MDA-MB-435; 12.7 µM (inactive) in the assay on MDA-N; 18.6 µM (inactive) with NCI-H226; 11.7 µM (inactive) with NCI-H460; 13.4 µM (inactive) with OVCAR-3; 15.5 µM (inactive) in the assay on OVCAR-8. Also, the GI50 with RPMI-8226 was 3.78 µM (inactive); in the assay with SF-268 it was 14.1 µM (inactive); in the assay with SK-MEL-28 it was 6.21 µM (inactive); with SK-MEL-5, 14 µM (inactive); in the assay with SK-OV-3, 16.3 µM (inactive); in the assay on SNB-75, 12.3 µM (inactive). In addition, the values for the GI50 with UACC-257 and with UACC-62 were 6.87 µM (inactive) and 13.6 µM (inactive), respectively.

Take `O=C1CSC(c2cccs2)N1c1nc2cc3sc(N4C(=O)CSC4c4cccs4)nc3cc2s1` (stereo not given): the GI50 in the assay with CAKI-1 was 47.4 µM (inactive); in the assay on DU-145, > 50 µM (inactive); in the assay on HCT-15, 33.4 µM; in the assay with HL-60, > 50 µM (inactive); in the assay with HT-29, 11.9 µM (inactive); with MCF7 it was 15.9 µM (inactive). For the same compound, the GI50 is > 50 µM (inactive) in the assay with MDA-MB-435; > 50 µM (inactive) in the assay with MDA-N; 6.38 µM (inactive) in the assay on NCI-H226; 3.04 µM (inactive) with NCI-H460; > 50 µM (inactive) in the assay on OVCAR-3; > 50 µM (inactive) with OVCAR-8. The GI50 was > 50 µM (inactive) with RPMI-8226; > 50 µM (inactive) in the assay on SF-268; > 50 µM (inactive) with SK-MEL-28; 22.5 µM (inactive) in the assay on SK-MEL-5; > 50 µM (inactive) in the assay with SK-OV-3; > 50 µM (inactive) with SNB-75. The GI50 in the assay on UACC-257 and in the assay with UACC-62 was > 50 µM (inactive) throughout.

For the compound `Cc1ccc2c(c1C)C(=O)C1(C2)Cc2ccc3c(c2C1=O)CCC3` (stereo not given), the GI50 with CAKI-1 is > 100 µM (inactive); with DU-145, > 100 µM (inactive); in the assay with HCT-15 it was over 100 µM; with HL-60, > 100 µM (inactive); in the assay on HT-29, > 100 µM (inactive); in the assay on MCF7, > 100 µM (inactive). Further, the GI50 with MDA-MB-435, in the assay on MDA-N, in the assay with NCI-H226, in the assay with NCI-H460, with OVCAR-3 and with OVCAR-8 was > 100 µM (inactive) each time. Further, the GI50 in the assay with RPMI-8226, with SF-268, with SK-MEL-28, in the assay with SK-MEL-5, in the assay with SK-OV-3 and with SNB-75 was > 100 µM (inactive) in each case. For the same compound, the GI50 in the assay on UACC-257 and with UACC-62 was > 100 µM (inactive) each time.

With `Cc1n(-c2ccccc2)c2c([n+]1Cc1ccc([N+](=O)[O-])cc1)C(=O)c1ccccc1C2=O`, the GI50 with CAKI-1 was 15.7 µM (inactive); with DU-145, 1.85 µM (inactive); in the assay on HCT-15, 9.12 µM; in the assay with HL-60, 0.409 µM (active); in the assay on HT-29, 2.38 µM (inactive); in the assay on MCF7 it was 1.37 µM (inactive). Also, the GI50 in the assay with MDA-MB-435 was 1.74 µM (inactive); in the assay with MDA-N, 1.77 µM (inactive); in the assay with NCI-H226, 5.43 µM (inactive); in the assay on NCI-H460 it was 3.78 µM (inactive); in the assay with OVCAR-3, 0.182 µM (active); in the assay on OVCAR-8, 2.37 µM (inactive). The GI50 was 0.845 µM (active) in the assay with RPMI-8226; 1.75 µM (inactive) in the assay on SF-268; 1.81 µM (inactive) in the assay on SK-MEL-28; 1.85 µM (inactive) with SK-MEL-5; 4.3 µM (inactive) in the assay on SK-OV-3; 3.69 µM (inactive) in the assay on SNB-75. The GI50 in the assay with UACC-257 was 1.69 µM (inactive); in the assay with UACC-62, 2.03 µM (inactive).

`CCOc1ccc(/C=C2\N=C(c3ccc([N+](=O)[O-])cc3)OC2=O)cc1`: the GI50 in the assay on CAKI-1 is > 100 µM (inactive); in the assay with DU-145 it was > 100 µM (inactive); with HCT-15 it was over 100 µM; in the assay with HL-60 it was > 100 µM (inactive); with HT-29 it was > 100 µM (inactive); in the assay with MCF7, > 100 µM (inactive). For the same compound, the GI50 in the assay on MDA-MB-435, with MDA-N, in the assay on NCI-H226, with NCI-H460, in the assay with OVCAR-3 and in the assay on OVCAR-8 was > 100 µM (inactive) throughout. Moreover, the GI50 in the assay with RPMI-8226, with SF-268, in the assay on SK-MEL-28, with SK-MEL-5, in the assay on SK-OV-3 and in the assay on SNB-75 was > 100 µM (inactive) each time. Besides, the GI50 with UACC-257 and in the assay with UACC-62 was > 100 µM (inactive) throughout.
